Test results from ChEMBL document CHEMBL4152291, “Synthesis and biological activities of dithiocarbamates containing 2(5H)-furanone-piperazine” (Eur J Med Chem, 2018).

How the values were obtained:
[1] = Growth inhibition of human LO2 cells at 5 ug/ml after 72 hrs by MTT assay relative to control; type: cell-based, L02; conditions: read-out: GI
[2] = test system: SMMC-7721; test: Growth inhibition of human SMMC7721 cells at 0.1 ug/ml after 72 hrs by MTT assay relative to control; type: functional; conditions: SMMC-7721, 72 h, read-out: GI
[3] = test system: SMMC-7721; test: Growth inhibition of human SMMC7721 cells at 5 ug/ml after 72 hrs by MTT assay relative to control; type: functional; conditions: SMMC-7721, 72 h, read-out: GI
[4] = test system: SMMC-7721; test: Growth inhibition of human SMMC7721 cells at 0.5 ug/ml after 72 hrs by MTT assay relative to control; type: functional; conditions: SMMC-7721, 72 h, read-out: GI
[5] = Growth inhibition of human LO2 cells at 2.5 ug/ml after 72 hrs by MTT assay relative to control; type: cell-based, L02; conditions: read-out: GI
[6] = test system: SMMC-7721; test: Growth inhibition of human SMMC7721 cells at 2.5 ug/ml after 72 hrs by MTT assay relative to control; type: functional; conditions: SMMC-7721, 72 h, read-out: GI
[7] = Growth inhibition of human LO2 cells at 0.01 ug/ml after 72 hrs by MTT assay relative to control; type: cell-based, L02; conditions: read-out: GI
[8] = Growth inhibition of human LO2 cells at 0.1 ug/ml after 72 hrs by MTT assay relative to control; type: cell-based, L02; conditions: read-out: GI
[9] = test system: SMMC-7721; test: Growth inhibition of human SMMC7721 cells at 0.01 ug/ml after 72 hrs by MTT assay relative to control; type: functional; conditions: SMMC-7721, 72 h, read-out: GI
[10] = Growth inhibition of human LO2 cells at 0.5 ug/ml after 72 hrs by MTT assay relative to control; type: cell-based, L02; conditions: read-out: GI
[11] = test system: L02; test: Cytotoxicity against human LO2 cells assessed as inhibition of cell proliferation after 72 hrs by MTT assay; type: cell-based; conditions: L02, 72 h
[12] = test system: HeLa; test: Growth inhibition of human HeLa cells at 100 ug/ml after 72 hrs by MTT assay relative to control; type: functional; conditions: read-out: GI
[13] = test system: HeLa; test: Growth inhibition of human HeLa cells at 6.25 ug/ml after 72 hrs by MTT assay relative to control; type: functional; conditions: read-out: GI
[14] = test system: HeLa; test: Cytotoxicity against human HeLa cells assessed as inhibition of cell proliferation after 72 hrs by MTT assay; type: functional, cell-based
[15] = test system: HeLa; test: Growth inhibition of human HeLa cells at 12.5 ug/ml after 72 hrs by MTT assay relative to control; type: functional; conditions: read-out: GI
[16] = test system: HeLa; test: Growth inhibition of human HeLa cells at 25 ug/ml after 72 hrs by MTT assay relative to control; type: functional; conditions: read-out: GI
[17] = test system: HeLa; test: Growth inhibition of human HeLa cells at 50 ug/ml after 72 hrs by MTT assay relative to control; type: functional; conditions: read-out: GI
[18] = test system: HeLa; test: Cytotoxicity against human HeLa cells; type: functional, cell-based
[19] = test system: SMMC-7721; test: Induction of apoptosis in human SMMC7721 cells assessed as early apoptotic cells at 0.5 ug/ml after 72 hrs by Annexin-V-FITC/propidium iodide staining based flow cytometry (reference value: 2.61 to 3.3%); type: functional
[20] = test system: SMMC-7721; test: Induction of apoptosis in human SMMC7721 cells assessed as early apoptotic cells at 0.1 ug/ml after 72 hrs by Annexin-V-FITC/propidium iodide staining based flow cytometry (reference value: 2.61 to 3.3%); type: functional
[21] = test system: SMMC-7721; test: Induction of apoptosis in human SMMC7721 cells assessed as late apoptotic cells at 5 ug/ml after 72 hrs by Annexin-V-FITC/propidium iodide staining based flow cytometry (reference value: 3.34 to 3.62%); type: functional
[22] = test system: SMMC-7721; test: Induction of apoptosis in human SMMC7721 cells assessed as early apoptotic cells at 5 ug/ml after 72 hrs by Annexin-V-FITC/propidium iodide staining based flow cytometry (reference value: 2.61 to 3.3%); type: functional
[23] = test system: SMMC-7721; test: Induction of apoptosis in human SMMC7721 cells assessed as necrotic cells at 0.1 ug/ml after 72 hrs by Annexin-V-FITC/propidium iodide staining based flow cytometry (reference value: 0.39 to 0.5%); type: functional
[24] = test system: SMMC-7721; test: Induction of apoptosis in human SMMC7721 cells assessed as necrotic cells at 5 ug/ml after 72 hrs by Annexin-V-FITC/propidium iodide staining based flow cytometry (reference value: 0.39 to 0.5%); type: functional
[25] = test system: SMMC-7721; test: Induction of apoptosis in human SMMC7721 cells assessed as late apoptotic cells at 0.1 ug/ml after 72 hrs by Annexin-V-FITC/propidium iodide staining based flow cytometry (reference value: 3.34 to 3.62%); type: functional
[26] = test system: SMMC-7721; test: Induction of apoptosis in human SMMC7721 cells assessed as necrotic cells at 0.5 ug/ml after 72 hrs by Annexin-V-FITC/propidium iodide staining based flow cytometry (reference value: 0.39 to 0.5%); type: functional
[27] = test system: SMMC-7721; test: Induction of apoptosis in human SMMC7721 cells assessed as live cells at 0.5 ug/ml after 72 hrs by Annexin-V-FITC/propidium iodide staining based flow cytometry (reference value: 92.87 to 93.39%); type: functional
[28] = test system: SMMC-7721; test: Induction of apoptosis in human SMMC7721 cells assessed as live cells at 0.1 ug/ml after 72 hrs by Annexin-V-FITC/propidium iodide staining based flow cytometry (reference value: 92.87 to 93.39%); type: functional
[29] = test system: SMMC-7721; test: Induction of apoptosis in human SMMC7721 cells assessed as live cells at 5 ug/ml after 72 hrs by Annexin-V-FITC/propidium iodide staining based flow cytometry (reference value: 92.87 to 93.39%); type: functional
[30] = test system: SMMC-7721; test: Induction of apoptosis in human SMMC7721 cells assessed as increase in early apoptotic cells after 72 hrs by Annexin-V-FITC/propidium iodide staining based flow cytometry; type: functional, cell-based
[31] = test system: SMMC-7721; test: Induction of apoptosis in human SMMC7721 cells assessed as increase in late apoptotic cells after 72 hrs by Annexin-V-FITC/propidium iodide staining based flow cytometry; type: functional, cell-based
[32] = test system: SMMC-7721; test: Induction of apoptosis in human SMMC7721 cells assessed as late apoptotic cells at 0.5 ug/ml after 72 hrs by Annexin-V-FITC/propidium iodide staining based flow cytometry (reference value: 3.34 to 3.62%); type: functional

Compound | inhibition at 72 h, 5 ug/ml [1] | inhibition of growth at 0.1 µg/mL [2] | inhibition of growth at 5 µg/mL [3] | inhibition of growth at 0.5 µg/mL [4] | inhibition at 72 h, 2.5 ug/ml [5] | inhibition of growth at 2.5 µg/mL [6] | inhibition at 72 h, 0.01 ug/ml [7] | inhibition at 72 h, 0.1 ug/ml [8] | inhibition of growth at 0.01 µg/mL [9] | inhibition at 72 h, 0.5 ug/ml [10] | inhibition of growth at 100 µg/mL [12] | inhibition of growth at 6.25 µg/mL [13] | Activity [14] | IC50 [14] | inhibition of growth at 12.5 µg/mL [15] | inhibition of growth at 25 µg/mL [16] | inhibition of growth at 50 µg/mL [17] | other results
CC[C@]1(O)C[C@H]2CN(CCc3c([nH]c4ccccc34)[C@@](C(=O)OC)(c3cc4c(cc3OC)N(C=O)[C@H]3[C@@](O)(C(=O)OC)[C@H](OC(C)=O)[C@]5(CC)C=CCN6CC[C@]43[C@@H]65)C2)C1 [VINCRISTINE] | 16.5% | 17.7% | 68.5% | 23.9% | 11.5% | 45.7% | 1.6% | 1.39% | 12.3% | 7.26% |  |  |  |  |  |  |  | 
C=CCSC(=S)N1CCN(C2=C(Br)C(=O)O[C@@H]2O[C@@H]2C[C@H](C)CC[C@H]2C(C)C)CC1 | 12.9% | 17% | 67.4% | 21% | 11.2% | 40.7% | -1.9% | 5.21% | 7.87% | 9.79% | 57.4% | 45.6% | Dose-dependent effect | 60 nM | 44.5% | 41.7% | 53.8% | IC50 [11]: 45800 nM
Nc1ccn([C@@H]2O[C@H](CO)[C@@H](O)[C@@H]2O)c(=O)n1 [CYTARABINE] | 25.4% | 16.1% | 63.1% | 24% | 18.8% | 44.5% | -1.76% | 3.02% | 13% | 13.3% |  |  |  |  |  |  |  | IC50 [18]: 950 nM
COC(=O)CSC(=S)N1CCN(C2=C(Br)C(=O)O[C@@H]2O[C@@H]2C[C@H](C)CC[C@H]2C(C)C)CC1 | 26.6% | 9.68% | 64.5% | 21.4% | 15% | 40.1% | 0.87% | 6.98% | 4.41% | 11.1% | 36.9% | 8.57% | Dose-dependent effect | 320 nM | 10.9% | 11.3% | 35.3% | 
CC(C)[C@@H]1CC[C@@H](C)C[C@H]1O[C@H]1OC(=O)C(Br)=C1N1CCN(C(=S)SCc2ccccc2)CC1 | 25.8% | 17% | 75% | 20.9% | 15.6% | 39.2% | -3.31% | 7.48% | 9.09% | 15% | 45% | 32% | Dose-dependent effect | 260 nM | 37.5% | 43.5% | 46.4% | Activity [19]: 4.01 - 5.07%; Activity [20]: 2.75 - 3.41%; Activity [21]: 18.99 - 20.66%; Activity [22]: 6.06 - 6.14%; Activity [23]: 1.29 - 4.56%; Activity [24]: 7.72 - 9.59%; Activity [25]: 5.56 - 7.39%; Activity [26]: 2.17 - 4.01%; Activity [27]: 81.84 - 83.6%; Activity [28]: 85.91 - 89.74%; Activity [29]: 64.53 - 65.54%; Activity [30]: Dose-dependent effect; Activity [31]: Dose-dependent effect; Activity [32]: 8.98 - 11.36%
